Results from article PMC9481570, “A small molecule antagonist of SMN disrupts the interaction between SMN and RNAP II” (Nature Communications, 2022).

Test system: R-loops at ACTB gene locus
Assay: R-loop DNA immunoprecipitation with GFP-HB along ACTB locus
Type: cell-based, human
Settings: for GFP-HB DNA immunoprecipitation qPCR, ACTB position 332 / GFP-HB DNA immunoprecipitation qPCR, ACTB position 1671 / GFP-HB DNA immunoprecipitation qPCR, ACTB position 3560 / GFP-HB DNA immunoprecipitation qPCR, ACTB position 3752 / GFP-HB DNA immunoprecipitation qPCR, ACTB position 4657 / GFP-HB DNA immunoprecipitation qPCR, ACTB position 5590 / GFP-HB DNA immunoprecipitation qPCR, ACTB position -72: HEK293 cells transfected with GFP-HB; for R-loop signals at the 3′-end of the ACTB gene: HEK293 cells, GFP-HB DNA immunoprecipitation
Source text: Fig. 4 Effects of SMN antagonists on the interaction between SMN and RNAP II, RNAP II pause, and R-loop accumulation. a SMN antagonists disrupt binding of SMN to RNAP II. Data shown are representative of three independent experiments. b Illustration of ACTB gene and the qPCR amplification positions. c SMN antagonists reduce SMN association at ACTB gene locus. Quantification of SMN qPCR data from ChIP experiments using SMN antibody at the indicated ACTB amplification positions. The SMN levels in DMSO controls were set as 100%. d SMN antagonists lead to RNAP II pause. Quantification of RNAP II qPCR data from ChIP experiments using POLR2A antibody at the indicated ACTB amplification positions. e SMN knockout (KO) leads to R-loop accumulation. Representative single-plane images of Z-stacks of the R-loop levels in scramble vs SMN KO cells of three independent experiments. Scale bar: 5 μm. f Global nuclear R-loop accumulation in SMN KO cells. g SMN antagonists cause global nuclear R-loop accumulation. h SMN antagonists lead to R-loop accumulation at ACTB gene locus. Quantified DNA immunoprecipitation using primers along ACTB locus by using GFP antibody, in cell extracts that were transfected with GFP-RNase H1 R-loop-binding domain (GFP-HB) fusion construct for R-loop detection. a–h HEK293 cells; c, d, h data were presented as the mean ± S.E.M. of three independent experiments (*P < 0.05, **P < 0.01, ***P < 0.001 for the two-tailed Student’s t-test); f, g scatter plots representing data from single-cell and R-loop immunofluorescence analysis (number of cells = 377, 332, 295, 262, 265 for scramble, SMN KO, DMSO, Cmpd 1, Cmpd 2 condition, respectively; Mean ± Quartiles; ****P < 0.0001 for the two-tailed Mann–Whitney test; a.u.: arbitrary units). Source data are provided as a Source Data file.
HEK293 cells (ATCC, CRL-1573) were grown in DMEM (SLRI media facility) plus 10% FBS (Sigma, F1051). For analysis of SMN chemical antagonists, HEK293 cells were treated with DMSO or a series of concentrations (0, 2, 6, 10, 20, 30, 40, and 80 μM) of compound 1, compound 2 or negative compound 15 for 72 h. CRISPR-mediated SMN1 gene knockout was performed according to our previous study. Briefly, 2 μg of CRISPR/Cas9 plasmid (pCMV-Cas9-GFP), which expresses scrambled guide RNA, or guide RNA that targets the SMN1 gene exon1 (gRNA target sequence: […]) or exon3 (gRNA target sequence: […]) was transfected into HEK293 cells. Cells were sorted by BD FACSAria flow cytometry at Donnelly Center, University of Toronto 24 h after transfection, and single GFP-positive cells were seeded into a 48-well plate. The expression levels of SMN in each clone were detected by immunofluorescence. The transfection of GFP-RNase H1 R-loop-binding domain (GFP-HB) for R-loop detection into HEK293 cells was performed with the FuGENE Transfection reagent (Roche, E269A).
ChIP was performed using the EZ-ChIP™ A - Chromatin Immunoprecipitation Kit (Millipore, 17-371) according to the manufacturer’s instruction. Antibodies were used with a range of 1–2 μg, and IgG (Millipore, polyclonal antibody, 12-370) was used as a background control. After immunoprecipitation, genomic DNA was de-crosslinked in ChIP elution buffer containing 5 M NaCl at 65 °C overnight and purified with the Qiaex II kit (Qiagen, 20021), and eluted in water for PCR amplification. Immunoprecipitated and input DNAs were used as templates for qPCR. The qPCR primer sequences for ACTB gene are the same as described earlier[9] and shown in the Supplementary Table 2. For analysis of SMN chemical antagonists, HEK293 cells were treated with DMSO, compound 1 or compound 2 (a final concentration of 20 μM) for 72 h, before processing for ChIP.

Structure (SMILES)	GFP-HB DNA immunoprecipitation qPCR, ACTB position 332	GFP-HB DNA immunoprecipitation qPCR, ACTB position 1671	GFP-HB DNA immunoprecipitation qPCR, ACTB position 3560	GFP-HB DNA immunoprecipitation qPCR, ACTB position 3752	GFP-HB DNA immunoprecipitation qPCR, ACTB position 4657	GFP-HB DNA immunoprecipitation qPCR, ACTB position 5590	GFP-HB DNA immunoprecipitation qPCR, ACTB position -72	R-loop signals at the 3′-end of the ACTB gene
CCCn1c2c(c(=N)c3c1CCC3)CCC2 [Compound 2, 4-propyl-2,3,4,5,6,7-hexahydrodicyclopenta[b,e]pyridin-8(1H)-imine]	0.008454	0.01239	0.02386	0.02558	0.01308	0.01171	0.004979	significantly increased
Cn1c2c(c(=N)c3c1CCC3)CCC2 [Compound 1, 4-methyl-2,3,4,5,6,7-hexahydrodicyclopenta[b,e]pyridin-8(1H)-imine]	0.009604	0.01285	0.03192	0.04162	0.02409	0.01303	0.00357	significantly increased
